This experiment has as its target T1, LXRβ (Homo sapiens, UniProt P55055).
T1 construct: Co-transfection expression plasmids, comprising full-length LXRα (pCMX-h LXRα[…] or LXRβ (pCMX-hLXRβ)); expressed in transfected cells; host or cells: CV-1 African Green Monkey Kidney Cells
T1 sequence (P55055 1-460): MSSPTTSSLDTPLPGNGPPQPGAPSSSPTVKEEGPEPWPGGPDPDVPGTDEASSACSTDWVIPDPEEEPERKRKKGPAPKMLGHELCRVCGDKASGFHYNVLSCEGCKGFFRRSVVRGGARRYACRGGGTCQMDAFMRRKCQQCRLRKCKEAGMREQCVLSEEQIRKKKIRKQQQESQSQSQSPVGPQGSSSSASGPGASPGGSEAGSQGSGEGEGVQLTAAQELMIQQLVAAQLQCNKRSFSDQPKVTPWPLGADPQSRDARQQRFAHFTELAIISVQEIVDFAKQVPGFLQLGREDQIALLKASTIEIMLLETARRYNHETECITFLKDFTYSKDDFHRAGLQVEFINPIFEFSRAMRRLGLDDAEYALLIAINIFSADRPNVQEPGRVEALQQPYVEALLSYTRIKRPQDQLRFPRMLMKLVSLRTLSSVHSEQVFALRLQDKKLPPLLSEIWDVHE
T1 sequence (P19793 1-462 partner): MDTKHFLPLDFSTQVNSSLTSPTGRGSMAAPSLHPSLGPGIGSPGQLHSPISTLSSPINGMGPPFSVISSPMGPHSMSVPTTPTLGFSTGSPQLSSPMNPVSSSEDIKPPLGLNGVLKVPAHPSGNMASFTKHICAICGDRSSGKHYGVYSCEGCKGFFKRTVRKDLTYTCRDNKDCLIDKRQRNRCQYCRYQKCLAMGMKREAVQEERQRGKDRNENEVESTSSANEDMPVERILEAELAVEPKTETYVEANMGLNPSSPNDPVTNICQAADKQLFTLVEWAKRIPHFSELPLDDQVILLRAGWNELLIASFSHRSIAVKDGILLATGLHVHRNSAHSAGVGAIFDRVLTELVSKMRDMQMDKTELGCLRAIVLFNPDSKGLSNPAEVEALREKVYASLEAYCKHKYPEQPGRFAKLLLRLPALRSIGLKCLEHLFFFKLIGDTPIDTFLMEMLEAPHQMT
Description: Co-transfection assay (LXRE luciferase reporter), LXRβ. In kind it is cell-based. Conditions: for EC50: CV-1 cells transfected with pCMX-hLXRβ and LXREx1-Tk-Luciferase, 20 hours incubation; for Emax: LXRβ co-transfection, relative to high control 1-(2,4-difluorobenzyl)-2-oxo-6-(4-phenoxyphenyl)-4-(trifluoromethyl)-1,2-dihydropyridine-3-carbonitrile, read-out: % Efficacy. The gist of the method: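 CV-1 cells transiently co-transfected with full-length human LXRβ expression plasmid, LXREx1-Tk-luciferase reporter and β-galactosidase control, then exposed to compound for 20 h at 37 °C. Luciferase luminescence read; EC50 from 11-point, ½-log dose–response fit, efficacy relative to high-control agonist maximum.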
On the technique in general: A reporter such as luciferase makes a cellular process visible.

One may read the EC50 as the midpoint of the concentration-response curve. Lower therefore signals higher potency in that assay. On to `Cc1nc(C(F)(F)F)cn1-c1ccc(-c2cc(F)c(CO)c(S(C)(=O)=O)c2)cc1-c1ccnn1-c1ccc(Cl)cc1` [Example 288, {3′-[1-(4-chlorophenyl)-1H-pyrazol-5-yl]-3-fluoro-5-(methylsulfonyl)-4′-[2-methyl-4-(trifluoromethyl)-1H-imidazol-1-yl]biphenyl-4-yl}methanol], for which the concentration giving a half-maximal response (EC50) stood at 74 nM and the Emax came to 81%.
As to `Cc1nc(C(F)(F)F)cn1-c1ccc(-c2cccc(S(C)(=O)=O)c2)cc1-c1ccnn1-c1ccc(OC(F)(F)F)cc1` [Example 289, 5-{3′-(methylsulfonyl)-4-[2-methyl-4-(trifluoromethyl)-1H-imidazol-1-yl]biphenyl-3-yl}-1-{4-[(trifluoromethyl)oxy]phenyl}-1H-pyrazole], a half-maximal effect (EC50) was put at 122 nM and the Emax amounted to 75%.
For `Cc1cc(-c2cc(-c3cc(F)c(CO)c(S(C)(=O)=O)c3)ccc2-n2cc(C(F)(F)F)nc2C)n(-c2ccc(Cl)cc2)n1` [Example 290, {3′-[1-(4-chlorophenyl)-3-methyl-1H-pyrazol-5-yl]-3-fluoro-5-(methylsulfonyl)-4′-[2-methyl-4-(trifluoromethyl)-1H-imidazol-1-yl]biphenyl-4-yl}methanol] the same measures were 30 nM and 43%.
Regarding `Cc1cc(-c2cc(-c3cccc(S(C)(=O)=O)c3)ccc2-n2cc(C(F)(F)F)nc2C)n(-c2ccc(OC(F)(F)F)cc2)n1` [Example 291, 3-methyl-5-{3′-(methylsulfonyl)-4-[2-methyl-4-(trifluoromethyl)-1H-imidazol-1-yl]biphenyl-3-yl}-1-{4-[(trifluoromethyl)oxy]phenyl}-1H-pyrazole], a half-maximal response (EC50) required 47 nM and the Emax came out at 69%.
For the compound `Cc1nc(C(F)(F)F)cn1-c1ccc(-c2cc(F)c(CO)c(S(C)(=O)=O)c2)cc1-c1ccnn1-c1ccc(OC(F)(F)F)cc1` [Example 292, [3-fluoro-5-(methylsulfonyl)-4′-[2-methyl-4-(trifluoromethyl)-1H-imidazol-1-yl]-3′-(1-{4-[(trifluoromethyl)oxy]phenyl}-1H-pyrazol-5-yl)biphenyl-4-yl]methanol], the EC50 was found to be 65 nM and the Emax came to 70%.
For `Cc1nc(C(F)(F)F)cn1-c1ccc(-c2cccc(S(C)(=O)=O)c2)cc1-c1ccnn1-c1ccc2c(c1)OC(F)(F)O2` [Example 293, 1-(2,2-difluorobenzo[d][1,3]dioxol-5-yl)-5-(4-(2-methyl-4-(trifluoromethyl)-1H-imidazol-1-yl)-3′-(methylsulfonyl)biphenyl-3-yl)-1H-pyrazole] the same measures were 114 nM and 97%.
Take `Cc1nc(C(F)(F)F)cn1-c1ccc(-c2cc(F)c(CO)c(S(C)(=O)=O)c2)cc1-c1ccnn1-c1ccc2c(c1)OC(F)(F)O2` [Example 294, (3′-(1-(2,2-difluorobenzo[d][1,3]dioxol-5-yl)-1H-pyrazol-5-yl)-3-fluoro-4′-(2-methyl-4-(trifluoromethyl)-1H-imidazol-1-yl)-5-(methylsulfonyl)biphenyl-4-yl)methanol]: the concentration giving a half-maximal response (EC50) amounted to 57 nM and the Emax worked out at 87%.
`Cc1nc(C(F)(F)F)cn1-c1ccc(-c2ccc(CO)c(S(C)(=O)=O)c2)cc1-c1ccnn1-c1ccc2c(c1)OC(F)(F)O2` [Example 295, (3′-(1-(2,2-difluorobenzo[d][1,3]dioxol-5-yl)-1H-pyrazol-5-yl)-4′-(2-methyl-4-(trifluoromethyl)-1H-imidazol-1-yl)-3-(methylsulfonyl)biphenyl-4-yl)methanol]: the EC50 amounted to 40 nM and the Emax worked out at 80%.
Turning to `Cc1nc(C(F)(F)F)cn1-c1ccc(-c2cccc(S(C)(=O)=O)c2)cc1-c1ccnn1-c1ccc(Cl)nc1` [Example 296, 2-chloro-5-(5-(4-(2-methyl-4-(trifluoromethyl)-1H-imidazol-1-yl)-3′-(methylsulfonyl)biphenyl-3-yl)-1H-pyrazol-1-yl)pyridine], the half-maximal effective concentration (EC50) is 572 nM and the Emax is 75%.

The values above are taken from US9834542B2, “LXR modulators” (BRISTOL-MYERS SQUIBB COMPANY, priority 2013, dated 2017).
